Measurements as given in patent US20220304998A1, “REBAMIPIDE FOR USE IN PREVENTION AND TREATMENT OF CROHN'S DISEASE” (SQUARE POWER LTD., priority 2019, published 2022).

Tests used:
[1] = test system: patients suffering from Crohn's disease; experiment: Clinical course, response and tolerability in Crohn's disease patient case reports; format: in vivo, human; details: for adverse reaction: affecting skin and joints
Description: (§1) Several patients suffering from Crohn's disease for at least 5 years without sufficient response to standard treatment were given rebamipide tablets three times a day. […] The severity of the disease was quantified by the CDAI, and the level of inflammation by fecal calprotectin.

[2] = oral administration; cited from earlier work
[3] = test system: patients suffering from Crohn's disease; experiment: Crohn's Disease Activity Index (CDAI) in Crohn's disease patients given rebamipide tablets; format: in vivo, human
Description: as §1
Crohn's Disease Activity Index (CDAI) is a research tool used to quantify the symptoms of patients with Crohn's disease. It consists of eight factors, each summed after adjustment with a weighting factor. Remission of Crohn's disease is defined as CDAI below 150, whereas severe disease is defined as a value of greater than 450.

[4] = test system: Calprotectin (FC); experiment: Fecal calprotectin in stool samples by ELISA kit (EK-CAL, Bühlmann); format: in vivo, human; details: for fecal calprotectin level: Example 1; for calprotectin: Example 2
Description: as §1
Calprotectin (FC) is a small calcium-binding protein that is used as a biomarker for inflammatory bowel diseases since its fecal concentration correlates well with the disease severity. Calprotectin values lower than 200 μg/g feces are considered the normal level. It was measured in stool samples using commercially available enzyme-linked immunosorbent assay (ELISA) kit (EK-CAL, Bühlmann).

[5] = summary of patient sample, add-on to corticosteroid

Cn1cnc([N+](=O)[O-])c1Sc1ncnc2nc[nH]c12 [azathioprine]
adverse reaction leading to discontinuation ([1]; Example 3, discontinued after two weeks): acute pancreatitis

CCCC1O[C@@H]2C[C@H]3[C@@H]4CCC5=CC(=O)C=C[C@]5(C)[C@H]4[C@@H](O)C[C@]3(C)[C@]2(C(=O)CO)O1 (stereo partly shown) [budesonide]
duration of maintained remission ([1]; Example 3, therapy with budesonide and mesalazine): about 10 years

C[C@H]1C[C@@H]2[C@H]([C@@H](O)C[C@@]3(C)[C@H]2CC[C@]3(O)C(=O)CO)[C@@]2(C)C=CC(=O)C=C12 [methylprednisolon]
treatment outcome of corticosteroid alone after relapse ([1]; Example 1, methylprednisolon 24 mg/day before rebamipide): without success

C[C@]12C=CC(=O)C=C1CC[C@@H]1[C@@H]2C(=O)C[C@@]2(C)[C@H]1CC[C@]2(O)C(=O)CO [prednisone]
treatment outcome of corticosteroid alone after relapse ([1]; Example 2, prednisone 40 mg/day before rebamipide): not able to reach remission

O=C(NC(Cc1cc(=O)[nH]c2ccccc12)C(=O)O)c1ccc(Cl)cc1 (stereo not shown) [rebamipide, 2-[(4-chlorobenzoyl)amino]-3-(2-oxo-1H-quinolin-4-yl)propanoic acid]
absorption in the GI tract [2]: poorly absorbed | CDAI ([3]; Example 1, person, Crohn's ileocolitis, rebamipide 100 mg three times daily with methylprednisolon 24 mg/day, after 6 weeks, relapse value 358): 181 points | CDAI ([3]; Example 1, after another 6 weeks, corticosteroid dose reduced to half, rebamipide 100 mg three times daily): 73 points | CDAI ([3]; Example 2, person, Crohn's ileocolitis, rebamipide 200 mg t.i.d. add-on to prednisone 40 mg/day, after 6 weeks, relapse value 479): 225 points | CDAI ([3]; Example 2, after another 6 weeks, rebamipide 100 mg t.i.d., prednisone tapered from 30 mg/day by 10 mg every 2 weeks): 84 points | CDAI ([3]; Example 3, person, Crohn's ileitis, rebamipide 100 mg three times daily with prednisone 50 mg/day, 25 mg after 14 days, after another 6 weeks, initial value 377): 98 points | disease activity on rebamipide only after corticosteroid withdrawal ([1]; Example 1, patient continued only rebamipide): No worsening in disease activity | disease activity on rebamipide only after prednisone discontinuation ([1]; Example 2, patient continued only rebamipide 100 mg t.i.d.): No worsening in disease activity | clinical symptoms ([1]; Example 3, after 14 days of rebamipide 100 mg three times daily with prednisone 50 mg/day): alleviation of the clinical symptoms | disease activity on rebamipide only after prednisone withdrawal ([1]; Example 3, patient continued only rebamipide): No worsening in disease activity | maintenance of remission ([1]; rebamipide alone, long-term): able to maintain remission | tolerability of long-term therapy ([1]; rebamipide alone, long-term): well tolerated | remission in patients who exhausted standard treatment options [1, 5]: induce remission | fecal calprotectin level ([4]; after another 6 weeks, corticosteroid dose reduced to half, rebamipide 100 mg three times daily): 63 µg/g | fecal calprotectin level ([4]; rebamipide 100 mg three times daily with methylprednisolon 24 mg/day, after 6 weeks, relapse value up to 1939): 228 µg/g | calprotectin ([4]; after another 6 weeks, rebamipide 100 mg t.i.d., prednisone tapered from 30 mg/day by 10 mg every 2 weeks): 110 µg/g | calprotectin ([4]; rebamipide 200 mg t.i.d. add-on to prednisone 40 mg/day, after 6 weeks, relapse value 2215): 356 µg/g | calprotectin level ([4]; Example 3, rebamipide 100 mg three times daily with prednisone 50 mg/day, 25 mg after 14 days, after another 6 weeks, initial value up to 1051): 122 µg/g | effect on calprotectin levels [4, 5]: normalize calprotectin levels

adalimumab
adverse reaction ([1]; Example 1): immunological response had developed

infliximab: monoclonal antibody against TNFα
adverse reaction ([1]; Example 1): immunological response had developed
